The target of one assay is BSA protein glycation (Bos taurus, UniProt P02769). As to the kind of experiment: Anti-glycation assay. The assay is classed as biochemical, Bovine. The conditions noted are these: BSA + dextrose, 9 days at 37 °C, mean ± SD of triplicate.
A further assay concerns the target Aβ42 (Homo sapiens, UniProt P05067). The assay can be described thus: ThT assay of inhibition of Aβ aggregation. It counts as biochemical.

Marks after values point to notes of the source that are not given here.

Chain of BSA protein glycation (P02769 25-607): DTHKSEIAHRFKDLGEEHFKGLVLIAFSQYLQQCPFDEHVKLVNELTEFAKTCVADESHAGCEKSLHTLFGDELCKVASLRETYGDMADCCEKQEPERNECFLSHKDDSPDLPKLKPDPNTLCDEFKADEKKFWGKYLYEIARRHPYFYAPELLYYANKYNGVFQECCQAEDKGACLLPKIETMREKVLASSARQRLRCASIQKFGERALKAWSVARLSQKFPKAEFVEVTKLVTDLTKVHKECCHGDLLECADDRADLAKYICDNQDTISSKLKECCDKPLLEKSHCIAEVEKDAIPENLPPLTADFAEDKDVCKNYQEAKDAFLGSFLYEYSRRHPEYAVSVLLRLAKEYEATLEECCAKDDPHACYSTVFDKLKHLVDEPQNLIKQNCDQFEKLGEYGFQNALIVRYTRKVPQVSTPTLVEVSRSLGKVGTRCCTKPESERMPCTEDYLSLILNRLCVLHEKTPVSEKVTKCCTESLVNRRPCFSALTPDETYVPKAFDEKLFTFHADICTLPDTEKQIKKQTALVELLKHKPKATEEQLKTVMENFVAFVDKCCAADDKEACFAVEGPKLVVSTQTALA
Chain of Aβ42 (P05067 672-713): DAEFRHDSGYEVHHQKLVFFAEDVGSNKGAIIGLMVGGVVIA

For `N=C(N)NN` [Aminoguanidine], at BSA protein glycation, the “Half-maximal inhibitory (IC50) values Protein glycation” value is given as 15.27 ± 0.37^b μg/mL. A word on the IC50: it is the midpoint of a concentration-inhibition curve. A low value points to greater potency. Consider `O=S1(=O)OC(c2ccc(O)cc2)(c2ccc(O)cc2)c2ccccc21` [Phenol Red], for which half-maximal inhibition on Aβ42 (IC50) was put at 94.7 µM.

These data come from paper PMC12365113 (IBRO Neuroscience Reports, 2025).
